Test results taken from ChEMBL document CHEMBL1201862, “PubChem BioAssay data set” (2004).
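Method: 48-hour compound exposure of cells in 96-well plates, five concentrations, linear interpolation of endpoints. GI50 marks 50% less growth.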 Activity calls are given as the source filed them. Rule as the data show it: active = GI50 up to about 1.1 µM and inactive = higher.

What was measured:
Assay in all cases: NCI-60 cell line screen, 48 h
[1] = test system: CAKI-1
[2] = test system: HOP-92
[3] = test system: RPMI-8226
[4] = test system: MOLT-4
[5] = test system: 786-0
[6] = test system: UACC-62
[7] = test system: M14
[8] = test system: OVCAR-4
[9] = test system: SK-OV-3
[10] = test system: COLO 205
[11] = test system: ACHN
[12] = test system: SN12C
[13] = test system: NCI-H23
[14] = test system: HCT-116
[15] = test system: DMS-114
[16] = test system: HL-60
[17] = test system: IGROV-1
[18] = test system: M19-MEL
[19] = test system: Malme-3M
[20] = test system: NCI-H226
[21] = test system: DMS-273
[22] = test system: HCC 2998
[23] = test system: SK-MEL-2
[24] = test system: HOP-62
[25] = test system: SR
[26] = test system: SNB-78
[27] = test system: LXFL 529
[28] = test system: UO-31
[29] = test system: SF-539
[30] = test system: CCRF-CEM
[31] = test system: NCI-H460
[32] = test system: DLD-1
[33] = test system: NCI-H522
[34] = test system: K562
[35] = test system: SNB-75
[36] = test system: SF-268
[37] = test system: SK-MEL-28
[38] = test system: HT-29
[39] = test system: UACC-257
[40] = test system: RXF 393
[41] = test system: SW-620
[42] = test system: SNB-19
[43] = test system: EKVX
[44] = test system: U-251
[45] = test system: KM12
[46] = test system: KM-20L2
[47] = test system: SF-295
[48] = test system: HCT-15
[49] = test system: OVCAR-3
[50] = test system: TK-10
[51] = test system: OVCAR-8
[52] = test system: LOX IMVI
[53] = test system: A549
[54] = test system: BT-549
[55] = test system: MDA-MB-231
[56] = test system: OVCAR-5
[57] = test system: MDA-MB-435
[58] = test system: SK-MEL-5
[59] = test system: PC-3
[60] = test system: A498
[61] = test system: MDA-N
[62] = test system: MCF7
[63] = test system: DU-145
[64] = test system: Hs-578T
[65] = test system: NCI/ADR-RES
[66] = test system: T47D

CCCNC1CC(n2cc(C)c(=O)[nH]c2=O)OC1CO (centres undefined)
GI50 [1]: > 100 µM (inactive)
GI50 [2]: > 100 µM (inactive)
GI50 [3]: > 100 µM (inactive)
GI50 [4]: > 100 µM (inactive)
GI50 [5]: > 100 µM (inactive)
GI50 [6]: > 100 µM (inactive)
GI50 [7]: > 100 µM (inactive)
GI50 [8]: > 100 µM (inactive)
GI50 [9]: > 100 µM (inactive)
GI50 [10]: > 100 µM (inactive)
GI50 [11]: > 100 µM (inactive)
GI50 [12]: > 100 µM (inactive)
GI50 [13]: > 100 µM (inactive)
GI50 [14]: > 100 µM (inactive)
GI50 [15]: > 100 µM (inactive)
GI50 [16]: > 100 µM (inactive)
GI50 [17]: > 100 µM (inactive)
GI50 [18]: > 100 µM (inactive)
GI50 [19]: > 100 µM (inactive)
GI50 [20]: > 100 µM (inactive)
GI50 [21]: > 100 µM (inactive)
GI50 [22]: > 100 µM (inactive)
GI50 [23]: > 100 µM (inactive)
GI50 [24]: > 100 µM (inactive)
GI50 [25]: > 100 µM (inactive)
GI50 [26]: > 100 µM (inactive)
GI50 [27]: > 100 µM (inactive)
GI50 [28]: > 100 µM (inactive)
GI50 [29]: > 100 µM (inactive)
GI50 [30]: > 100 µM (inactive)
GI50 [31]: > 100 µM (inactive)
GI50 [32]: > 100 µM (inactive)
GI50 [33]: > 100 µM (inactive)
GI50 [34]: > 100 µM (inactive)
GI50 [35]: > 100 µM (inactive)
GI50 [36]: > 100 µM (inactive)
GI50 [37]: > 100 µM (inactive)

Cn1c(=O)c(C(=O)NC23CC4CC(CC(C4)C2)C3)c(O)c2ccccc21
GI50 [3]: > 100 µM (inactive)
GI50 [4]: > 100 µM (inactive)
GI50 [38]: 15.8 µM (inactive)
GI50 [39]: 28.8 µM (inactive)
GI50 [40]: 14.8 µM (inactive)
GI50 [5]: 14.3 µM (inactive)
GI50 [6]: 53.7 µM (inactive)
GI50 [7]: 28.8 µM (inactive)
GI50 [41]: 56.1 µM (inactive)
GI50 [9]: 20.9 µM (inactive)
GI50 [10]: 46.1 µM (inactive)
GI50 [42]: 21.2 µM (inactive)
GI50 [11]: 19.9 µM (inactive)
GI50 [12]: 21.9 µM (inactive)
GI50 [13]: 67.9 µM (inactive)
GI50 [14]: 23.5 µM (inactive)
GI50 [15]: 45.6 µM (inactive)
GI50 [43]: 31.5 µM (inactive)
GI50 [16]: 25.1 µM (inactive)
GI50 [44]: 24.5 µM (inactive)
GI50 [17]: 31.8 µM (inactive)
GI50 [18]: 49.8 µM (inactive)
GI50 [19]: 21.2 µM (inactive)
GI50 [45]: > 100 µM (inactive)
GI50 [46]: 28.9 µM (inactive)
GI50 [20]: 13.4 µM (inactive)
GI50 [47]: 18.5 µM (inactive)
GI50 [21]: 26.2 µM (inactive)
GI50 [22]: > 10 µM (inactive)
GI50 [24]: 21.8 µM (inactive)
GI50 [25]: > 100 µM (inactive)
GI50 [48]: > 100 µM
GI50 [26]: 43.3 µM (inactive)
GI50 [49]: 23.4 µM (inactive)
GI50 [27]: 59.4 µM (inactive)
GI50 [28]: 50.1 µM (inactive)
GI50 [29]: 26.7 µM (inactive)
GI50 [30]: > 100 µM (inactive)
GI50 [50]: 23.8 µM (inactive)
GI50 [51]: 23.3 µM (inactive)
GI50 [31]: 22.3 µM (inactive)
GI50 [32]: 50.7 µM (inactive)
GI50 [33]: > 100 µM (inactive)
GI50 [52]: 43.4 µM (inactive)
GI50 [34]: > 100 µM (inactive)
GI50 [35]: 28.4 µM (inactive)
GI50 [36]: 74.5 µM (inactive)
GI50 [37]: 37.7 µM (inactive)
GI50 [53]: 28.8 µM (inactive)

O=P1(Cc2ccccc2)c2ccccc2-c2ccccc21
GI50 [54]: 2.9 µM (inactive)
GI50 [1]: 21.7 µM (inactive)
GI50 [2]: 0.376 µM (active)
GI50 [55]: 20.7 µM (inactive)
GI50 [3]: 0.65 µM (active)
GI50 [4]: 7.29 µM (inactive)
GI50 [56]: 12.1 µM (inactive)
GI50 [38]: 2.37 µM (inactive)
GI50 [39]: 1.86 µM (inactive)
GI50 [40]: 9.42 µM (inactive)
GI50 [5]: 7.94 µM (inactive)
GI50 [6]: 1.96 µM (inactive)
GI50 [57]: 0.764 µM (active)
GI50 [7]: 3.67 µM (inactive)
GI50 [41]: 3.61 µM (inactive)
GI50 [58]: 1.46 µM (inactive)
GI50 [8]: 11 µM (inactive)
GI50 [9]: 15.7 µM (inactive)
GI50 [10]: 2.63 µM (inactive)
GI50 [42]: 3.69 µM (inactive)
GI50 [11]: 11.2 µM (inactive)
GI50 [12]: 14.2 µM (inactive)
GI50 [13]: 3.86 µM (inactive)
GI50 [14]: 2.86 µM (inactive)
GI50 [43]: 20.4 µM (inactive)
GI50 [59]: 2.82 µM (inactive)
GI50 [16]: 1.04 µM (active)
GI50 [44]: 3.88 µM (inactive)
GI50 [17]: 2.33 µM (inactive)
GI50 [60]: 7.85 µM (inactive)
GI50 [19]: 2.15 µM (inactive)
GI50 [45]: 1.08 µM (active)
GI50 [20]: 5.77 µM (inactive)
GI50 [61]: 1.22 µM (inactive)
GI50 [47]: 5.98 µM (inactive)
GI50 [22]: 1.51 µM (inactive)
GI50 [62]: 3.08 µM (inactive)
GI50 [23]: 2.18 µM (inactive)
GI50 [24]: 6.47 µM (inactive)
GI50 [25]: 3.89 µM (inactive)
GI50 [63]: 7.38 µM (inactive)
GI50 [64]: 7.05 µM (inactive)
GI50 [48]: 37.2 µM
GI50 [49]: 1.06 µM (active)
GI50 [65]: > 100 µM (inactive)
GI50 [28]: 20.6 µM (inactive)
GI50 [29]: 6.21 µM (inactive)
GI50 [30]: 6.04 µM (inactive)
GI50 [50]: 5 µM (inactive)
GI50 [51]: 4.4 µM (inactive)
GI50 [31]: 4.04 µM (inactive)
GI50 [33]: 1.87 µM (inactive)
GI50 [52]: 4.74 µM (inactive)
GI50 [34]: 1.41 µM (inactive)
GI50 [35]: 4.75 µM (inactive)
GI50 [66]: 0.0658 µM (active)
GI50 [36]: 9.12 µM (inactive)
GI50 [37]: 4.13 µM (inactive)
GI50 [53]: 8.81 µM (inactive)

Nc1ccc(C(=O)NN2C(=O)C(Cl)C2c2cccc(O)c2)cc1 (centres undefined)
GI50 [1]: 20.4 µM (inactive)
GI50 [2]: 17.4 µM (inactive)
GI50 [3]: 14.7 µM (inactive)
GI50 [4]: 11.3 µM (inactive)
GI50 [56]: 22.2 µM (inactive)
GI50 [38]: 17.4 µM (inactive)
GI50 [39]: 18.3 µM (inactive)
GI50 [5]: 13.4 µM (inactive)
GI50 [6]: 14.8 µM (inactive)
GI50 [7]: 19.4 µM (inactive)
GI50 [41]: 19.2 µM (inactive)
GI50 [58]: 17.6 µM (inactive)
GI50 [8]: 16.7 µM (inactive)
GI50 [9]: 19.5 µM (inactive)
GI50 [10]: 17.1 µM (inactive)
GI50 [42]: 16.9 µM (inactive)
GI50 [11]: 17.5 µM (inactive)
GI50 [12]: 17.8 µM (inactive)
GI50 [13]: 15.5 µM (inactive)
GI50 [14]: 4.4 µM (inactive)
GI50 [15]: 5.45 µM (inactive)
GI50 [43]: 21.5 µM (inactive)
GI50 [16]: 1.69 µM (inactive)
GI50 [44]: 12.5 µM (inactive)
GI50 [17]: 14.4 µM (inactive)
GI50 [18]: 21.5 µM (inactive)
GI50 [60]: 35.2 µM (inactive)
GI50 [19]: 20.3 µM (inactive)
GI50 [45]: 10.7 µM (inactive)
GI50 [46]: 17.1 µM (inactive)
GI50 [20]: 18.5 µM (inactive)
GI50 [47]: 18.3 µM (inactive)
GI50 [21]: 11 µM (inactive)
GI50 [22]: 15.8 µM (inactive)
GI50 [23]: 15 µM (inactive)
GI50 [24]: 15.4 µM (inactive)
GI50 [48]: 12.7 µM
GI50 [26]: 17.5 µM (inactive)
GI50 [49]: 15.8 µM (inactive)
GI50 [27]: 11.7 µM (inactive)
GI50 [28]: 19.7 µM (inactive)
GI50 [29]: 17.1 µM (inactive)
GI50 [30]: 5.55 µM (inactive)
GI50 [50]: 16.7 µM (inactive)
GI50 [51]: 19.9 µM (inactive)
GI50 [31]: 14 µM (inactive)
GI50 [32]: 14.4 µM (inactive)
GI50 [33]: 1.75 µM (inactive)
GI50 [52]: 3.85 µM (inactive)
GI50 [34]: 10.8 µM (inactive)
GI50 [35]: 22.3 µM (inactive)
GI50 [36]: 3.34 µM (inactive)
GI50 [37]: 16.9 µM (inactive)
GI50 [53]: 19.8 µM (inactive)
